Measurements as given in patent US20080280862A1, “Methods, compositions, and kits for the treatment of pain” (priority 2007, published 2008).

Tests used:
TNFα = TNFα secretion by human white blood cells stimulated with PMA/ionomycin, synergy score; format: cell-based; parameters: key: S = Σ Idata(Idata−ILoewe) × ln dilution factors; volume over Loewe additivity; settings: PBMC stimulated with PMA/Ionomycin
Protocol: A 100 μl suspension of diluted human white blood cells contained within each well of a polystyrene 384-well plate (NalgeNunc) was stimulated to secrete TNFα by treatment with a final concentration of 10 ng/mL phorbol 12-myristate 13-acetate (Sigma, P-1585) and 750 ng/mL ionomycin (Sigma, I-0634). Various concentrations of each test compound were added at the time of stimulation. After 16-18 hours of incubation at 37° C. in a humidified incubator, the plate was centrifuged and the supernatant transferred to a white opaque polystyrene 384-well plate (NalgeNunc, Maxisorb) coated with an anti-TNFα antibody (PharMingen, #551220). After a two-hour incubation, the plate was washed (Tecan PowerWasher 384) with PBS containing 0.1% Tween 20 and incubated for an additional one hour with another anti-TNFα antibody that was biotin labeled (PharMingen, #554511) and HRP coupled to strepavidin (PharMingen, #13047E). After the plate was washed with 0.1% Tween 20/PBS, an HRP-luminescent substrate was added to each well and light intensity measured using a LJL Analyst plate luminometer.
The synergy scores calculated for the various combinations of compounds set forth in Table 3 was calculated by the formula S=log fX log fYΣIdata(Idata−ILoewe), summed over all non-single-agent concentration pairs, and where log fX,Y are the natural logarithm of the dilution factors used for each single agent. This effectively calculates a volume between the measured and Loewe additive response surfaces, weighted towards high inhibition and corrected for varying dilution factors.

[1] = system: formalin-induced pain model in rats; assay: Formalin pain model, nociceptive behaviors; format: in vivo, Sprague-Dawley rats; settings: 20 mg/kg
Protocol: The formalin model is a fast, reliable model used to assess potential analgesics ability to block inflammatory pain. The analgesic effects of test article combinations on pain generation are assayed using the formalin-induced pain model in rats. Adult male Sprague-Dawley rats are administered intraperitoneally study drugs (vehicle, TCA, steroid or TCA/Steroid test article combinations) once daily for 2 days (day −2 and day −1) and 30 minutes prior to the formalin injection day on day 0 (time=0). […] To elicit a pain response, dilute formalin (2% in saline) is injected under the skin of the plantar surface of the right hindpaw. The animal is placed in an observation chamber. The pain response is a characteristic biphasic response pattern of nociceptive behaviors (lifting, licking, and biting of the injected paw). Two distinct periods of nociceptive behaviors/activity are observed and recorded: an early phase (phase I) lasting the first 5-10 min and a late phase (phase II) lasting 20-40 min after the injection of formalin. One hour of data is collected (time spent displaying pain behavior) by a blinded observer using a stopwatch. Results are expressed as the number of pain behaviors per 5 minute periods (Table 8 and Table 9).

[2] = system: carrageenan-induced pain model in rats; assay: Carrageenan pain model, mechanical allodynia by Von Frey filaments; format: in vivo, Sprague-Dawley rats; settings: for Mean change from baseline ± SEM: 25 mg/kg; for mean change from baseline: Table 4, 25 mg/kg ip
Protocol: The carrageenan model is a fast, reliable model used to assess the ability of analgesics to block inflammatory pain. The analgesic effects of test article combinations on pain generation are assayed using the carrageenan-induced pain model in rats. Adult male Sprague-Dawley rats are administered study drugs intraperitoneally (vehicle, tricyclic compound (TCA), steroid or TCA/Steroid test article combinations) once daily for 2 days (day −2 and day −1) and 30 minutes prior to the carrageenan injection on day 0 (time=0). For the carrageenan injection, animals are lightly anesthetized and 0.1 ml of 2% carrageenan is injected into the plantar surface of the right hind paw. The positive control diclofenac at a dose of 25 mg/kg is administered intraperitoneally immediately before the carrageenan injection. Paw volumes (right and left) are measured using a plathysmometer before drug administration on day −2 and serve as a baseline measurement. The paw volumes are measured again two hours post carrageenan injection. The degree of mechanical allodynia is measured by a blinded observer using Von Frey filaments applied to the plantar surface of the hind paws in an increasing numerical order. Each filament increases the force applied on the paw. The filaments are applied until animal paw withdrawal is achieved. This procedure is carried out before drug administration (day −2), on day −1 and on day 0 at time=0, 20, 40, 60, 80 and 120 minutes post-carrageenan. The force (expressed in grams) required for paw withdrawal after carrageenan injection is subtracted from the force required for paw withdrawal before carrageenan injection. Results are expressed as mean change from baseline across five timepoints post carrageenan injection in Table 4.
For a synergy calculation, experimental data from the carrageenan study are fitted to a median-effect model and used to calculate the parameters' median-effect dose (Dm), slope (m), correlation coefficient (r), combination index (CI) and dose-reduction index (DRI). In addition, the probability of pain inhibition occurring after single-component (nortriptyline) versus the combination drug treatments are calculated from the negative change from baseline data using a Bayesian sensitivity analysis. The likelihood of pain inhibition is characterized for nortriptyline administered alone (1 mg/kg or 3 mg/kg) versus the fixed-dose combination treatments [prednisolone (0.3 mg/kg):nortriptyline (1 mg/kg) or prednisolone (1 mg/kg):nortriptyline (3 mg/kg)] each evaluated at 60 and 80 minutes for analgesic effect.
In another example, the effects of test article combinations on pain inhibition were assayed using the carrageenan model in rodents. Desipramine was tested alone and in combination at 0.3, 1, and 3 mg/kg and prednisolone was tested similarly at 0.3, 1 and 3 mg/kg IP.

[3] = combination with Hydrocortisone

## Clc1ccc2c(c1)C(N1CCNCC1)=Nc1ccccc1O2 [Amoxapine]
TNFα; combination with Betamethasone
  Synergy Score based on TNF-α inhibition: 0.68
TNFα; combination with Budesonide
  Synergy Score based on TNF-α inhibition: 0.63
TNFα; combination with Dexamethasone
  Synergy Score based on TNF-α inhibition: 1.3
TNFα; [3]
  Synergy Score based on TNF-α inhibition: 0.56
TNFα; combination with Prednisolone
  Synergy Score based on TNF-α inhibition: 1.1
TNFα; combination with Triamcinolone
  Synergy Score based on TNF-α inhibition: 0.37

## CN1CCC(=C2c3ccccc3CC(=O)c3sccc32)CC1 [Ketotifen]
TNFα; combination with Betamethasone
  Synergy Score based on TNF-α inhibition: 0.37
TNFα; combination with Budesonide
  Synergy Score based on TNF-α inhibition: 0.15
TNFα; combination with Dexamethasone
  Synergy Score based on TNF-α inhibition: 1.6
TNFα; [3]
  Synergy Score based on TNF-α inhibition: 0.31
TNFα; combination with Prednisolone
  Synergy Score based on TNF-α inhibition: 0.78
TNFα; combination with Triamcinolone
  Synergy Score based on TNF-α inhibition: 0.15

## CN(C)CCC=C1c2ccccc2C=Cc2ccccc21 [Cyclobenzaprine]
TNFα; combination with Betamethasone
  Synergy Score based on TNF-α inhibition: 0.29
TNFα; combination with Budesonide
  Synergy Score based on TNF-α inhibition: 0.7
TNFα; combination with Dexamethasone
  Synergy Score based on TNF-α inhibition: 1.2
TNFα; [3]
  Synergy Score based on TNF-α inhibition: 0.21
TNFα; combination with Prednisolone
  Synergy Score based on TNF-α inhibition: 0.36
TNFα; combination with Triamcinolone
  Synergy Score based on TNF-α inhibition: 0.37

## CN1CC[C@]23c4c5ccc(O)c4O[C@H]2[C@@H](O)C=C[C@H]3[C@H]1C5 [Morphine]
[1]; Experiment One, amitriptyline, 5 minutes
  Mean number of behaviors per 5 minute block: 116.0 ± 39.2
[1]; Experiment One, amitriptyline, 10 minutes
  Mean number of behaviors per 5 minute block: 19.0 ± 13.7
[1]; Experiment One, amitriptyline, 15 minutes
  Mean number of behaviors per 5 minute block: 17.0 ± 10.4
[1]; Experiment One, amitriptyline, 20 minutes
  Mean number of behaviors per 5 minute block: 53.0 ± 32.2
[1]; Experiment One, amitriptyline, 25 minutes
  Mean number of behaviors per 5 minute block: 77.0 ± 40.2
[1]; Experiment One, amitriptyline, 30 minutes
  Mean number of behaviors per 5 minute block: 65.0 ± 36.2
[1]; Experiment One, amitriptyline, 35 minutes
  Mean number of behaviors per 5 minute block: 66.0 ± 34.4
[1]; Experiment One, amitriptyline, 40 minutes
  Mean number of behaviors per 5 minute block: 58.0 ± 33.3
[1]; Experiment One, amitriptyline, 45 minutes
  Mean number of behaviors per 5 minute block: 33.0 ± 22.6
[1]; Experiment One, amitriptyline, 50 minutes
  Mean number of behaviors per 5 minute block: 11.0 ± 10.3
[1]; Experiment One, amitriptyline, 55 minutes
  Mean number of behaviors per 5 minute block: 2.0 ± 1.1
[1]; Experiment One, amitriptyline, 60 minutes
  Mean number of behaviors per 5 minute block: 1.0 ± 0.6
[1]; Experiment One, nortriptyline, 5 minutes
  Mean number of behaviors per 5 minute block: 120.0 ± 25.2
[1]; Experiment One, nortriptyline, 10 minutes
  Mean number of behaviors per 5 minute block: 7.0 ± 5.3
[1]; Experiment One, nortriptyline, 15 minutes
  Mean number of behaviors per 5 minute block: 2.0 ± 1.5
[1]; Experiment One, nortriptyline, 20 minutes
  Mean number of behaviors per 5 minute block: 2.0 ± 1.1
[1]; Experiment One, nortriptyline, 25 minutes
  Mean number of behaviors per 5 minute block: 1.0 ± 0.4
[1]; Experiment One, nortriptyline, 30 minutes
  Mean number of behaviors per 5 minute block: 0.0 ± 0.0
[1]; Experiment One, nortriptyline, 35 minutes
  Mean number of behaviors per 5 minute block: 0.0 ± 0.4
[1]; Experiment One, nortriptyline, 40 minutes
  Mean number of behaviors per 5 minute block: 1.0 ± 1.2
[1]; Experiment One, nortriptyline, 45 minutes
  Mean number of behaviors per 5 minute block: 20.0 ± 20.0
[1]; Experiment One, nortriptyline, 50 minutes
  Mean number of behaviors per 5 minute block: 29.0 ± 28.6
[1]; Experiment One, nortriptyline, 55 minutes
  Mean number of behaviors per 5 minute block: 29.0 ± 29.1
[1]; Experiment One, nortriptyline, 60 minutes
  Mean number of behaviors per 5 minute block: 55.0 ± 36.4
[1]; Experiment Two, 5 minutes
  Mean number of behaviors per 5 minute block: 64.0 ± 35.3
[1]; Experiment Two, 10 minutes
  Mean number of behaviors per 5 minute block: 3.0 ± 3.0
[1]; Experiment Two, 15 minutes
  Mean number of behaviors per 5 minute block: 0.0 ± 0.0
[1]; Experiment Two, 20 minutes
  Mean number of behaviors per 5 minute block: 0.0 ± 0.4
[1]; Experiment Two, 25 minutes
  Mean number of behaviors per 5 minute block: 0.0 ± 0.3
[1]; Experiment Two, 30 minutes
  Mean number of behaviors per 5 minute block: 1.0 ± 1.1
[1]; Experiment Two, 35 minutes
  Mean number of behaviors per 5 minute block: 1.0 ± 0.9
[1]; Experiment Two, 40 minutes
  Mean number of behaviors per 5 minute block: 0.0 ± 0.1
[1]; Experiment Two, 45 minutes
  Mean number of behaviors per 5 minute block: 8.0 ± 8.2
[1]; Experiment Two, 50 minutes
  Mean number of behaviors per 5 minute block: 25.0 ± 16.4
[1]; Experiment Two, 55 minutes
  Mean number of behaviors per 5 minute block: 56.0 ± 35.9
[1]; Experiment Two, 60 minutes
  Mean number of behaviors per 5 minute block: 51.0 ± 36.9

## O=C(O)Cc1ccccc1Nc1c(Cl)cccc1Cl [Diclofenac]
[2]; 25 mg/Kg, AUC from 20 minutes through 120 minutes following carrageenan injection
  Mean AUC ± SEM: 5332 ± 772.96
[2]; Experiment One, 20 minutes
  Mean change from baseline ± SEM: -17.50 ± 11.24 g
[2]; Experiment One, 40 minutes
  Mean change from baseline ± SEM: -74.70 ± 13.27 g
[2]; Experiment One, 60 minutes
  Mean change from baseline ± SEM: -146.70 ± 16.73 g
[2]; Experiment One, 80 minutes
  Mean change from baseline ± SEM: -203.30 ± 15.02 g
[2]; Experiment One, 120 minutes
  Mean change from baseline ± SEM: -259.90 ± 15.14 g
[2]; Experiment Two, first set of rows, 20 minutes
  Mean change from baseline ± SEM: 5.91 ± 7.99 g
[2]; Experiment Two, first set of rows, 40 minutes
  Mean change from baseline ± SEM: 3.89 ± 5.82 g
[2]; Experiment Two, first set of rows, 60 minutes
  Mean change from baseline ± SEM: 5.94 ± 10.01 g
[2]; Experiment Two, first set of rows, 80 minutes
  Mean change from baseline ± SEM: -2.47 ± 9.56 g
[2]; Experiment Two, first set of rows, 120 minutes
  Mean change from baseline ± SEM: -11.26 ± 8.92 g
[2]; Experiment Two, second set of rows, 20 minutes
  Mean change from baseline ± SEM: -8.50 ± 5.56 g
[2]; Experiment Two, second set of rows, 40 minutes
  Mean change from baseline ± SEM: -12.75 ± 6.22 g
[2]; Experiment Two, second set of rows, 60 minutes
  Mean change from baseline ± SEM: -8.50 ± 8.50 g
[2]; Experiment Two, second set of rows, 80 minutes
  Mean change from baseline ± SEM: -12.75 ± 6.22 g
[2]; Experiment Two, second set of rows, 120 minutes
  Mean change from baseline ± SEM: -17.75 ± 6.74 g
[2]; 20 minutes post carrageenan
  mean change from baseline: −17.50 ± 11.24 grams
[2]; 40 minutes post carrageenan
  mean change from baseline: −74.70 ± 13.27 grams
[2]; 60 minutes post carrageenan
  mean change from baseline: −146.70 ± 16.73 grams
[2]; 80 minutes post carrageenan
  mean change from baseline: −203.30 ± 15.02 grams
[2]; 120 minutes post carrageenan
  mean change from baseline: −259.90 ± 15.14 grams
